From patent US20240358693A1, “METHODS OF TREATING PAIN” (Aisa Pharma, Inc., priority 2023, published 2024)

Tested on: participants with SSc-RP
Assay: Pain score recorded during weekly RP attacks (11-point Likert scale)
Type: in vivo, human
Details: for Average Pain Score [Mean (SD)]: on treatment, N = 24
Description: The absolute change in average pain score (11-point Likert scale) of weekly RP attacks from baseline to the end of each Dosing Period will be a secondary outcome variable. The sponsor-developed participant-informed diary will be used to record data. The average pain score of weekly RP attacks is defined as the total pain scores divided by total number of RP attacks within the last 7 days of each dosing period. Average of the last 7 days of screening assessments will be used as baseline for the analysis of all periods. The variable will be calculated similar to frequency data as before.

Row | Compound | Average Pain Score, Change From Baseline, Mean (Cilnidipine 10 mg (n = 4)) | Average Pain Score, Percent Change from Baseline, Mean (Cilnidipine 10 mg (n = 4)) [%] | Average Pain Score [Mean (SD)] (Cilnidipine 10 mg (n = 4)) | Average Pain Score [Mean (SD)] (Cilnidipine 20 mg (n = 3)) | Average Pain Score, Change From Baseline, Mean (Cilnidipine (20 mg) (n = 3)) | Average Pain Score, Percent Change from Baseline, Mean (Cilnidipine (20 mg) (n = 3)) [%] | Average Raynaud's Pain (Cilnidipine (20 mg) (n = 3)) [%] | Mean pain level at baseline (Cilnidipine (20 mg) (n = 3)) | Mean percent change in pain score from baseline (Cilnidipine (20 mg) (n = 3)) [%] | Average Raynaud's Pain (Pooled Cilnidipine (n = 7)) [%] | Average Pain Score, Change From Baseline, Mean (Tadalafil 5 mg (n = 4)) | Average Pain Score, Percent Change from Baseline, Mean (Tadalafil 5 mg (n = 4)) [%] | Average Pain Score [Mean (SD)] (Tadalafil 5 mg (n = 4))
1 | COCCOC(=O)C1=C(C)NC(C)=C(C(=O)OC/C=C/c2ccccc2)C1c1cccc([N+](=O)[O-])c1 (stereo not shown) [Cilnidipine, cilnidipine] | 0.47 | 11.76 | 2.82 (2.268) | 1.28 (1.993) | −0.47 | −26.89 | 12 | 2.3 | −11.8 | −27 |  |  | 
2 | CN1CC(=O)N2[C@H](c3ccc4c(c3)OCO4)c3[nH]c4ccccc4c3C[C@@H]2C1=O [Tadalafil, tadalafil] |  |  |  |  |  |  |  |  |  |  | 0.37 | 17.20 | 5.84 (4.768)
